# Results taken from patent US11419865B2, “Method for inducing a sustained immune response” (Cytocom Inc., priority 2016, dated 2022).
# Like-named read-outs stand apart in the source and are kept apart here.
# Experiments:
# [1] = tested on: Shingles; assay: shingles case report; format: in vivo, human; settings: 4.5 mg nightly from 2013; before 8 major outbreaks over 18 months
# Method: A person diagnosed with Shingles in 2010 over 18 months had 8 major outbreaks, and was treated with acyclovir, and valacyclovir, as the outbreaks continued they prescribed Lidocaine patches and pain medications. […]
# [2] = tested on: HIV; settings: 3 mg compounded, with ART, cited from earlier work
# [3] = tested on: cancer patients; settings: cited from earlier work
# [4] = tested on: children with moderate to severe Crohn's disease; assay: pilot clinical trial in children with moderate to severe Crohn's disease; format: in vivo, human; parameters: patients in remission (PCDAI score≤10): unit not given here
# Method: A pilot clinical trial was conducted in children with moderate to severe Crohn's disease. Fourteen subjects with a mean age of 12.3 years (range, 8 to 17 y) were enrolled. […]. Safety and toxicity were monitored by physical examinations and blood chemistries. Clinical activity was assessed by the Pediatric Crohn's Disease Activity Index (PCDAI) and Quality of life was monitored by the Impact III survey. […] […].
# [5] = tested on: psoriatic arthritis patient; assay: psoriatic arthritis case report; format: in vivo, human
# [6] = tested on: myasthenia gravis patient; assay: myasthenia gravis case report; format: in vivo, human; settings: drug interrupted
# [7] = tested on: cancer patients; assay: cancer case reports; format: in vivo, human
# Method: person diagnosed with stage 3-stomach cancer prognosis 6 months to live on Mar. […] 28, 2007. In addition to Immediate release naltrexone patients received chemotherapy and kidney stents inserted. […].
# Person diagnosed with stage 4 pleural mesothelioma in December of 2008 and patients after consult with two other doctors it was determined due to the state of the diseases and other health issues to watch the tumors and not do chemotherapy. Prognosis was 6 to 12 months. Patient started 4.5 mg nightly and received on other treatment but did change diet. […] […].
# A person diagnosed with stage 4-colon cancer, 2007 which had spread to their lungs and liver, they removed 40% of their colon and began a round of chemotherapy and three surgeries removed 40% of their colon, half is their right lung and 75% of their liver. During the next 18 months received 47 weeks of chemotherapy (a combination of 4 chemo drugs at once). […].
# person was diagnosed with stage 3 prostate cancer which they were originally treated for 5 years before began 3 rounds of Docetaxel (Taxotere®). They were prescribed 4.5 mg of […]
# [8] = tested on: subjects with active Crohn's disease; assay: randomized placebo-controlled study, forty subjects with active Crohn's disease; format: in vivo, human
# Text: Forty subjects with active Crohn's disease were enrolled in the study. […] Providers and patients were masked to treatment assignment. The primary outcome was the proportion of subjects in each arm with a 70-point decline in Crohn's Disease Activity Index score (CDAI). The secondary outcome included mucosal healing based upon colonoscopy appearance and histology. […].
# [9] = tested on: Hashimoto's patients; assay: Hashimoto's thyroiditis case reports
# Method: Patient was taking L-thyroxine and pain medications and 75 mg Zoloft.
# Patients was taking Synthroid 150 mcg, Compounded T3 25 mcg, Progesterone 150 mg, Plus lots of supplements like Magnesium, D3, Methyl B12, Methyl folate, Selenium, E, Amino Restore, CLA, NAC, DE, Adaptacin.
# [10] = tested on: children with autism; assay: autism case reports
# [11] = tested on: diabetic neuropathy patient; assay: diabetic neuropathy case report; format: in vivo, human
# Text: person, diagnosed with diabetic neuropathy for the last six years was prescribed one or two tablets every four to six hours as needed for pain. Patient takes between 4 to 8 tablets a day.
# [12] = tested on: HIV; assay: single blind 90 day randomized bridging clinical trial in Nigeria, asymptomatic HIV+ adults on ART; format: in vivo, human
# Method: The differences in CD4 count, CD4%, hemoglobin, viral load, interferon alpha, and standard chemistry panel were measured between treated versus non-treated groups four times throughout the study. […] When used alone, it appears to slow and/or stop the progression of the disease.
# [13] = tested on: autistic children, lymphocyte subsets; assay: behavioral and immunological assessment in autism during double-blind naltrexone treatment; format: in vivo, human
# Text: Opioid-immune interactions in autism: behavioral and immunological assessment during a double-blind treatment with naltrexone.
# Changes in natural killer cells and activity were inversely related to plasma beta-endorphin levels.
# [14] = 0.1 mg/kg orally, end of the study
compound,measurement,setting,value
"O=C1CC[C@@]2(O)[C@H]3Cc4ccc(O)c5c4[C@@]2(CCN3CC2CC2)[C@H]1O5 [Immediate release naltrexone, naltrexone]","outbreaks, person, Shingles",[1],have not had a single outbreak
same,improvement in CD4 count vs control group,"[2]; at 6 months, p=0.041, 51 vs 49 subjects",significantly greater than the control group
same,improvement in CD4 count vs control group,"[2]; at 9 months, p=0.067",marginally
same,Improvement in CD4%,[2]; throughout treatment,not statistically significant
same,"disease course, person, adenocarcinoma of the pancreas with liver metastases","[3]; 4.5 mg once per day at bedtime with i.v. and oral ALA, selenium, silymarin, diet",comparatively stable disease for more than a 3-year period and an improved quality of life
same,"follow-up status, person, Follicular Lymphoma",[3]; 2007 report,"remains asymptomatic from their disease, 1 year after their last CT/PET imaging"
same,"disease outcome, person, Follicular Lymphoma","[3]; daily in the evening, after 6 months, not compliant with diet, supplement, ALA",clinical and radiological remission
same,safety and tolerability,[4]; 0.1 mg/kg orally,well tolerated without any serious adverse events
same,patients improved with mild disease activity (decrease in PCDAI score by at least 10 points),[4]; [14],67%
same,patients in remission (PCDAI score≤10),[4]; [14],Twenty-five
same,Systemic and social quality of life (Impact III),[4]; P=0.035,improved
same,"medication use, person, psoriatic arthritis","[5]; 4.5 mg at bedtime, within 10 days",able to discontinue all paid medications as well as the Humira
same,"disease course, person, psoriatic arthritis","[5]; 4.5 mg, last six months",the disease has stabilized and the progressive deterioration has stopped
same,"effect of running out of drug, person, myasthenia gravis",[6],symptoms began to return within 72 hours
same,"tolerance of chemotherapy, person, stage 4-colon cancer",[7]; 4.5 mg nightly from June of 2007 with chemotherapy,able to complete the entire protocol without any major side effects at all
same,"tolerance of chemotherapy, person, stage 3 prostate cancer",[7]; 4.5 mg nightly with 3 rounds of Docetaxel,able to withstand the chemotherapy and their blood work stayed stable throughout the protocol
same,"CAT scans, person, stage 4 pleural mesothelioma","[7]; 4.5 mg nightly, no chemotherapy, February 2009 and 2010",no measurable growth of tumors
same,"disease course, person, stage 4-colon cancer","[7]; 4.5 mg nightly, scans every six months",continued cancer free until June of 2015
same,"CT scan, person, stage 3-stomach cancer","[7]; 4.5 mg with chemotherapy, September 2007",tumors shrunk in half
same,"disease status, person, stage 3-stomach cancer","[7]; 4.5 mg, December of 2007",in remission and stable
same,"CT scan, person, stage 3-stomach cancer","[7]; 4.5 mg, March 2008",tumors had shrunk in half
same,"scan, person, stage 3-stomach cancer","[7]; 4.5 mg, March of 2009",tumors were stable
same,subjects with at least a 70-point decline in CDAI scores,"[8]; 4.5-mg daily oral, placebo 40%, p=0.009",Eighty-eight
same,subjects achieving remission with a CDEIS score<6,"[8]; after 12 weeks, placebo 8%",33%
same,subjects with endoscopic response (5-point decline in CDEIS),"[8]; after 12 weeks, placebo 28%, p=0.008",78%
same,side effects,[8]; vs placebo,Fatigue was the only side effect reported that was significantly greater in subjects receiving placebo
same,"lab work, person, Hashimoto's",[9]; 1.5 mg,Latest lab work was normal in all areas
same,"side effect, person, Hashimoto Thyroiditis",[9]; 3 mg in morning and 1 mg at night,strange dreams
same,"TPO levels, person, Hashimoto's","[9]; 4.5 mg with T3/T4 capsules from August 2011, initial 350",returned to normal
same,"TgAb, person, Hashimoto's","[9]; titrated 1.5, 3, 4.5 mg, from 77",< 1
same,"initial effect, child, Autism",[10]; 3 mg,hyperactivity increased for the first three weeks
same,"side effect, child, Autism",[10]; 5 ml at bedtime,a little constipation
same,"additional benefits, diabetic neuropathy",[11]; 4.5 mg,resolutions of RLS
same,"pain medication use, diabetic neuropathy","[11]; 4.5 mg from March of 2015, within 3 days",cut down the number of pills in half
same,"pain medication use, diabetic neuropathy","[11]; 4.5 mg, within 8 weeks",stopped all pain medication
same,increase in CD4 count,"[12]; about 4.5 mg single oral dose with ART, at 3 months",44%
same,BMI,[12]; about 4.5 mg with ART,increase in BMI
same,opportunistic infections,[12]; about 4.5 mg with ART,reduction in opportunistic infections
same,improvement in CD4 count vs control group,"[12]; about 4.5 mg with ART, at 3 months, control 54 subjects",significantly greater than the control group
same,Improvement in CD4%,"[12]; about 4.5 mg with ART, throughout treatment",the increases were statistically significant
same,T-cytotoxic-suppressor (CD4−CD8+),[13],significant reduction
same,T-helper-inducers (CD4+CD8−),[13],significant increase
